Results as given in patent US20190374526A1, “Substituted Heterocyclic Compounds as Inhibitors of PRDM9” (Merck Sharp & Dohme Corp., priority 2018, published 2019).

What follows are compounds tested against T1, hPRDM9 (amino acids 195-385) (Homo sapiens, UniProt Q9NQV7) (assay: PRDM9 biochemical assay (radiometric, 3[H] methyl transfer from SAM to biotinylated histone H3 peptide)). Conditions: 1 nM hPRDM9, 1 μM biotinylated H3(1-25)K4 peptide, 5 μM 3[H]-SAM, 55 μM un-labeled SAM, 25° C., 30 minutes.
T1 construct: 1.25 nM hPRDM9 (amino acids 195-385)
T1 sequence (Q9NQV7 195-385): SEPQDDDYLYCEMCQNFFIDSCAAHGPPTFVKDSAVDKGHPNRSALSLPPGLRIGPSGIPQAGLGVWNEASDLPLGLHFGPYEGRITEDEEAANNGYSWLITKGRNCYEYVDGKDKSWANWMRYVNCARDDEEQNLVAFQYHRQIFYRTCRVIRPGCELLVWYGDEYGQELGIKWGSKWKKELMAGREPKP
Description: The PRDM9 biochemical assay was carried out using a radiometric format involving the transfer of ^3[H] methyl group from S-adenosyl methionine (SAM) to a biotinylated histone H3 peptide (H3(1-25)K4). 10 mM compounds in DMSO were diluted 20 fold in assay buffer (10 mM Tris-HCl, pH 8.5, 10 mM DTT, and 0.01% Triton X-100) before adding […] to a well in a 384 well polypropylene microplate plate and adding 8 μl of reaction mix (1.25 nM hPRDM9 (amino acids 195-385), 1.25 μM biotinylated H3 peptide in assay buffer). The ^3[H]-SAM and cold SAM stock solutions were diluted to 50 μM and 550 μM respectively in assay buffer before aliquoting 1 μl of 50 μM ^3[H]-SAM, 550 μM SAM into each well to initiate the reaction. The assay was performed at 25° C. at the final concentrations of 1 nM hPRDM9, 1 μM peptide, 5 μM ^3[H]-SAM, and 55 μM un-labeled SAM in assay buffer. The reaction was quenched after 30 minutes by adding 25 μl 7.5 M Guanidine-HCl. Quenched reactions were transferred to streptavidin coated Flashplates, diluted two fold in assay buffer, incubated for 1 hour, and read on a Perkin Elmer Topcount instrument. Compound activity was expressed relative to activity of 0.5% (v/v) DMSO treated samples and fit to a four parameter logistic equation to determine IC50 values.
`Cc1cc(N2CCC3C(Nc4nc(-c5cc(Cl)cc(Cl)c5)no4)CCC32)ccn1` (mixture of isomers) [Compound 27] showed an IC50 of 36.4 µM.
For `Cc1cc(N[C@@H]2[C@@H](O)CN(c3nc(-c4cc(Cl)cc(Cl)c4)no3)[C@H]2C)ccn1` (racemic) [Compound 29], the IC50 was 13.3 µM.
With `Cc1cc(N2C[C@H]3CCN(c4nc(-c5cc(Cl)cc(Cl)c5)no4)C[C@H]3C2)ccn1` (racemic) [Compound 36] the IC50 was 27.8 µM.
`Cc1cc(N[C@H]2CC[C@H](Nc3nc(-c4cc(Cl)cc(Cl)c4)no3)C2)ccn1` (racemic) [Compound 50] showed an IC50 of 16.4 µM.
Compound `Cc1cc(N2CC[C@@H]3CN(c4nc(-c5cc(Cl)cc(Cl)c5)no4)C[C@@H]3C2)ccn1` [Compound 1, 3-(3,5-dichlorophenyl)-5-((3aS,7aS)-5-(2-methylpyridin-4-yl)hexahydro-1H-pyrrolo[3,4-c]pyridin-2(3H)-yl)-1,2,4-oxadiazole] has an IC50 of 5.16 µM.
`Cc1cc(N2CCC3(CCN(c4nc(-c5cc(Cl)cc(Cl)c5)no4)C3)C2)ccn1` (stereo not drawn) [Compound 4] gave an IC50 of 0.36 µM.
With `Cc1cc(N2CCC(C3CCCN(c4nc(-c5cc(Cl)cc(Cl)c5)no4)C3)CC2)ccn1` (stereo not drawn) [Compound 6] the IC50 was 11.3 µM.
Compound `Cc1cc(NC2CCCC(Nc3nc(-c4cc(Cl)cc(Cl)c4)no3)CC2)ccn1` (stereo not drawn) [Compound 7] has an IC50 of 4.85 µM.
Work on `Cc1cc(N2CCC(F)(CNc3nc(-c4cc(Cl)cc(Cl)c4)no3)CC2)ccn1` [Compound 8] yielded an IC50 of 0.804 µM.
For `Cc1cc(NC(C)C2CCCN(c3nc(-c4cc(Cl)cc(Cl)c4)no3)C2)ccn1` (stereo not drawn) [Compound 11], the IC50 was 19.7 µM.
`Cc1cc(NC[C@H]2CCCN2c2nc(-c3cc(Cl)cc(Cl)c3)no2)ccn1` [Compound 12] gave an IC50 of 41.5 µM.
Compound `Cc1cc(N2CCC3(CC2)CCN(c2nc(-c4cc(Cl)cc(Cl)c4)no2)CC3)ccn1` [Compound 15] has an IC50 of 31.6 µM.
In the case of `Cc1cc(NCCCN(C)c2nc(-c3cc(Cl)cc(Cl)c3)no2)ccn1` [Compound 16], the IC50 is reported as 11.5 µM.
`Cc1cc(N2CCC3(CCN(c4nc(-c5cc(Cl)cc(Cl)c5)no4)CC3)C2)ccn1` [Compound 20] was tested, and the IC50 was 7.79 µM.
`Cc1cc(N2CCC(CCNc3nc(-c4cc(Cl)cc(Cl)c4)no3)CC2)ccn1` [Compound 22] gave an IC50 of 18.6 µM.
With `CCC1(CNc2ccnc(C)c2)CCN(c2nc(-c3cc(Cl)cc(Cl)c3)no2)C1` (stereo not drawn) [Compound 23] the IC50 was 17.8 µM.
For `Cc1cc(N2CC3CC(Nc4nc(-c5cc(Cl)cc(Cl)c5)no4)CC3C2)ccn1` (stereo not drawn) [Compound 24], the IC50 was 5.34 µM.
`Cc1cc(N2CCC3(CCC(=O)N(c4nc(-c5cc(Cl)cc(Cl)c5)no4)C3)CC2)ccn1` [Compound 28] showed an IC50 of 0.0225 µM.
Work on `Cc1cc(NC2CCCC(Nc3nc(-c4cc(Cl)cc(Cl)c4)no3)C2)ccn1` (stereo not drawn) [Compound 30] yielded an IC50 of 28.2 µM.
`CCC1(CNc2nc(-c3cc(Cl)cc(Cl)c3)no2)CCN(c2ccnc(C)c2)CC1` [Compound 32] showed an IC50 of 2.21 µM.
`Cc1cc(N2CCC3(CCCC3Nc3nc(-c4cc(Cl)cc(Cl)c4)no3)CC2)ccn1` (stereo not drawn) [Compound 33] gave an IC50 of 1.52 µM.
In the case of `Cc1cc(N2CCC3(CC2)CC3Nc2nc(-c3cc(Cl)cc(Cl)c3)no2)ccn1` (stereo not drawn) [Compound 34], the IC50 is reported as 2.2 µM.
With `Cc1cc(NCC2(O)CCN(c3nc(-c4cc(Cl)cc(Cl)c4)no3)C2)ccn1` (stereo not drawn) [Compound 37] the IC50 was 15.5 µM.
`Cc1cc(N2CCC(CN(C)c3nc(-c4cc(Cl)cc(Cl)c4)no3)CC2)ccn1` [Compound 38] gave an IC50 of 0.16 µM.
`Cc1cc(N2CCC3CN(c4nc(-c5cc(Cl)cc(Cl)c5)no4)CC32)ccn1` (stereo not drawn) [Compound 39] was tested, and the IC50 was 12.3 µM.
Compound `Cc1cc(N2CCC3(CC2)CN(c2nc(-c4cc(Cl)cc(Cl)c4)no2)CCO3)ccn1` [Compound 40] has an IC50 of 0.0803 µM.
In the case of `Cc1cc(N2CCC3(CCCN3c3nc(-c4cc(Cl)cc(Cl)c4)no3)C2)ccn1` (stereo not drawn) [Compound 41], the IC50 is reported as 3.92 µM.
Compound `Cc1cc(N2CCCC(Nc3nc(-c4cc(Cl)cc(Cl)c4)no3)CC2)ccn1` (stereo not drawn) [Compound 42] has an IC50 of 35.8 µM.
With `Cc1cc(NCC(F)CNc2nc(-c3cc(Cl)cc(Cl)c3)no2)ccn1` (stereo not drawn) [Compound 43] the IC50 was 13.3 µM.
`Cc1cc(N2CC(C3CCCCN3c3nc(-c4cc(Cl)cc(Cl)c4)no3)C2)ccn1` (stereo not drawn) [Compound 44] showed an IC50 of 0.5 µM.
`Cc1cc(N2CC3CN(c4nc(-c5cc(Cl)cc(Cl)c5)no4)CC3C2)ccn1` (stereo not drawn) [Compound 45] was tested, and the IC50 was 0.34 µM.
With `Cc1cc(NCC2CN(c3nc(-c4cc(Cl)cc(Cl)c4)no3)C2)ccn1` [Compound 49] the IC50 was 40.2 µM.
In the case of `Cc1cc(N2CCC(N(c3nc(-c4cc(Cl)cc(Cl)c4)no3)C3CC3)CC2)ccn1` [Compound 51], the IC50 is reported as 7.29 µM.
`Cc1cc(N2CC(CCNc3nc(-c4cc(Cl)cc(Cl)c4)no3)C2)ccn1` [Compound 52] was tested, and the IC50 was 29.4 µM.
`Cc1cc(NC2CCC(Nc3nc(-c4cc(Cl)cc(Cl)c4)no3)CC2)ccn1` (stereo not drawn) [Compound 54] gave an IC50 of 26.1 µM.
In the case of `Cc1cc(N2CCC(O)(CNc3nc(-c4cc(Cl)cc(Cl)c4)no3)C2)ccn1` (stereo not drawn) [Compound 56], the IC50 is reported as 28 µM.
With `Cc1cc(N(C)CCCCNc2nc(-c3cc(Cl)cc(Cl)c3)no2)ccn1` [Compound 58] the IC50 was 24 µM.
`Cc1cc(NCC2(C)CCN(c3nc(-c4cc(Cl)cc(Cl)c4)no3)CC2)ccn1` [Compound 64] gave an IC50 of 3.58 µM.
`Cc1cc(N2CCC(C3CCN(c4nc(-c5cc(Cl)cc(Cl)c5)no4)CC3)CC2)ccn1` [Compound 65] gave an IC50 of 6.2 µM.
In the case of `Cc1cc(NC2CCC3CN(c4nc(-c5cc(Cl)cc(Cl)c5)no4)CC3C2)ccn1` (stereo not drawn) [Compound 66], the IC50 is reported as 0.47 µM.
In the case of `Cc1cc(N2CCC(CNc3nc(-c4cc(Cl)cc(Cl)c4)no3)(c3ccccc3)CC2)ccn1` [Compound 67], the IC50 is reported as 4.44 µM.
`Cc1cc(N2CC3CCCN(c4nc(-c5cc(Cl)cc(Cl)c5)no4)C3C2)ccn1` (stereo not drawn) [Compound 68] gave an IC50 of 2.8 µM.
For `Cc1cc(NC2CCC(O)(CNc3nc(-c4cc(Cl)cc(Cl)c4)no3)CC2)ccn1` (stereo not drawn) [Compound 69], the IC50 was 7.04 µM.
With `Cc1cc(N2CC3CCC(Nc4nc(-c5cc(Cl)cc(Cl)c5)no4)CC3C2)ccn1` (stereo not drawn) [Compound 70] the IC50 was 6.9 µM.
`Cc1cc(N2CCC3CN(c4nc(-c5cc(Cl)cc(Cl)c5)no4)CCC32)ccn1` (stereo not drawn) [Compound 71] gave an IC50 of 27.7 µM.
`Cc1cc(NC2CCCN(c3nc(-c4cc(Cl)cc(Cl)c4)no3)CC2)ccn1` (stereo not drawn) [Compound 74] was tested, and the IC50 was 1.13 µM.
With `Cc1cc(N2CCC(C3CCN(c4nc(-c5cc(Cl)cc(Cl)c5)no4)C3)CC2)ccn1` (stereo not drawn) [Compound 77] the IC50 was 2.63 µM.
With `Cc1cc(N2CCN(c3nc(-c4cc(Cl)cc(Cl)c4)no3)CC2)ccn1` [Compound 79] the IC50 was 19.1 µM.
`Cc1cc(N2CCC3(CC2)CC3Nc2nc(-c3cc(Cl)cc(Cl)c3)no2)ccn1` (stereo not drawn) [Compound 80] gave an IC50 of 2.83 µM.
`Cc1cc(NC[C@H]2CCN(c3nc(-c4cc(Cl)cc(Cl)c4)no3)C2)ccn1` [Compound 81] showed an IC50 of 13.3 µM.
In the case of `COc1cc(OC)cc(-c2nc(N3CCCC4(CCN(c5ccnc(C)c5)CC4)C3)no2)c1` [Compound 85, 5-(3,5-dimethoxyphenyl)-3-(9-(2-methylpyridin-4-yl)-2,9-diazaspiro[5.5]undecan-2-yl)-1,2,4-oxadiazole], the IC50 is reported as 0.08 µM.
In the case of `COc1cc(Cl)cc(-c2nc(N3CCCC4(CCN(c5ccnc(C)c5)CC4)C3)no2)c1` [Compound 86], the IC50 is reported as 0.28 µM.
With `COc1cccc(-c2nc(N3CCCC4(CCN(c5ccnc(C)c5)CC4)C3)no2)c1` [Compound 87] the IC50 was 0.47 µM.
`Cc1cc(N2CCC3(CCCN(c4noc(-c5cccc(Cl)c5)n4)C3)CC2)ccn1` [Compound 88] gave an IC50 of 0.06 µM.
In the case of `CCN1CCN(c2noc(-c3cc(OC)cc(OC)c3)n2)CC12CCN(c1ccnc(C)c1)CC2` [Compound 89], the IC50 is reported as 0.08 µM.
`COc1cc(OC)cc(-c2nc(N3CCN(C)C4(CCN(c5ccnc(C)c5)CC4)C3)no2)c1` [Compound 90] was tested, and the IC50 was 0.118 µM.
`COc1cc(OC(F)(F)F)cc(-c2nc(N3CCCC4(CCN(c5ccnc(C)c5)CC4)C3)no2)c1` [Compound 91, 5-(3-methoxy-5-(trifluoromethoxy)phenyl)-3-(9-(2-methylpyridin-4-yl)-2,9-diazaspiro[5.5]undecan-2-yl)-1,2,4-oxadiazole] showed an IC50 of 0.15 µM.
`Cc1cc(N2CCC3(CCCN(c4noc(-c5cc(OC(F)F)cc(OC(F)F)c5)n4)C3)CC2)ccn1` [Compound 92] showed an IC50 of 0.069 µM.
In the case of `COc1cc(OC)cc(-c2noc(N3CCN(CC(F)(F)F)C4(CCN(c5ccnc(C)c5)CC4)C3)n2)c1` [Compound 93, 3-(3,5-dimethoxyphenyl)-5-(9-(2-methylpyridin-4-yl)-1-(2,2,2-trifluoroethyl)-1,4,9-triazaspiro[5.5]undecan-4-yl)-1,2,4-oxadiazole], the IC50 is reported as 0.06 µM.
With `COCCN1CCN(c2nc(-c3cc(OC)cc(OC)c3)no2)CC12CCN(c1ccnc(C)c1)CC2` [Compound 94] the IC50 was 0.109 µM.
Compound `Cc1cc(N2CCC3(CC2)CN(c2nc(-c4cc(OC5CC5)cc(OC5CC5)c4)no2)CCN3C)ccn1` [Compound 95] has an IC50 of 0.044 µM.
`CCOc1cc(OCC)cc(-c2noc(N3CCN(C)C4(CCN(c5ccnc(C)c5)CC4)C3)n2)c1` [Compound 96] was tested, and the IC50 was 0.103 µM.
`Cc1cc(N2CCC3(CC2)CN(c2nc(-c4cc(OC(C)C)cc(OC(C)C)c4)no2)CCN3C)ccn1` [Compound 97] showed an IC50 of 1.37 µM.
